Source: patent US20110160167A1, “Steroid Derivatives Acting As Glucocorticosteroid Receptor Agonists” (AstraZeneca AB, priority 2007, published 2011)

What follows are compounds tested against T1, recombinant human GR (Homo sapiens, UniProt P04150) (assay: Human Glucocorticoid Receptor (GR) Assay (fluorescence polarization, Panvera/Invitrogen kit)). Settings: GS Red tracer, 2 hours at room temperature, 100% control 10 μM Dexamethasone, read-out: Inhibition of GR binding, IC50.
T1 construct: purchased Panvera/Invitrogen P2812 (kit P2893)
T1 sequence (P04150 1-777): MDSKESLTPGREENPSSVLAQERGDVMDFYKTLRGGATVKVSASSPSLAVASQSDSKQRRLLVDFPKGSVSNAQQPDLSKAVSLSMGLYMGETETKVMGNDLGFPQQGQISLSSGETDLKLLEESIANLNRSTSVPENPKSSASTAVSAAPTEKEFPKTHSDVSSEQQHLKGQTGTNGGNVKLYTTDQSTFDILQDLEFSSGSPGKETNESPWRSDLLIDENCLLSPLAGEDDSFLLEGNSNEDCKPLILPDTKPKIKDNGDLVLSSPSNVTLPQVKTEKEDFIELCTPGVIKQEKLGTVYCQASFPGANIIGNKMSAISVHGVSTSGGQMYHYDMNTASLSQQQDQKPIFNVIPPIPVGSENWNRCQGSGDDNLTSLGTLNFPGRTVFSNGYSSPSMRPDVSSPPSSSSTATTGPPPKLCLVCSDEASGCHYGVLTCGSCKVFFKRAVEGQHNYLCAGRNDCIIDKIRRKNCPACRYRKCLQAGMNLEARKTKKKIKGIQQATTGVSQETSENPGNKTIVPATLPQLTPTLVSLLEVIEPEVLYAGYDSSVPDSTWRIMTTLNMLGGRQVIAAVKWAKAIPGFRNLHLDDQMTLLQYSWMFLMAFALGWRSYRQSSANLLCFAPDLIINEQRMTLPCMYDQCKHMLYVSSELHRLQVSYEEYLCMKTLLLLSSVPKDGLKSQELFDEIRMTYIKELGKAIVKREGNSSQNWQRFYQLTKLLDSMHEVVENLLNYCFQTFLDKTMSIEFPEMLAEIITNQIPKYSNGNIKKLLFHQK
Experimental: Human Glucocorticoid Receptor (GR) Assay The assay is based on a commercial kit from Panvera/Invitrogen (Part number P2893). The assay technology is fluorescence polarization. The kit utilises recombinant human GR (Panvera, Part number P2812), a Fluoromone™ labelled tracer (GS Red, Panvera, Part number P2894) and a Stabilizing Peptide 10× (Panvera, Part number P2815). The GR and Stabilizing Peptide reagents are stored at −70° C. while the GS Red is stored at −20° C. Also included in the kit are 1M DTT (Panvera, Part number P2325, stored at −20° C.) and GR Screening buffer 10× (Panvera, Part number P2814, stored at −70° C. initially but once thawed stored at room temperature). Avoid repeated freeze/thaws for all reagents. The GR Screening buffer 10× comprises 100 mM potassium phosphate, 200 mM sodium molybdate, 1 mM EDTA and 20% DMSO. Test compounds (1 μL) and controls (1 μL) in 100% DMSO were added to black polystyrene 384-well plates (Greiner low volume black flat-bottom, part number 784076). 0% control was 100% DMSO and 100% control was 10 μM Dexamethasone. Background solution (8 μL; assay buffer 10×, Stabilizing Peptide, DTT and ice cold MQ water) was added to the background wells. GS Red solution (7 μL; assay buffer 10×, Stabilizing Peptide, DTT, GS Red and ice cold water) was added to all wells except background wells. GR solution (7 μL; assay buffer 10×, Stabilizing Peptide, DTT, GR and ice cold water) was added to all wells. The plate was sealed and incubated in a dark at room temperature for 2 hours. The plate was read in an Analyst plate reader (LJL Biosystems/Molecular Devices Corporation) or other similar plate reader capable of recording fluorescence polarization (excitation wavelength 530 nm, emission wavelength 590 nm and a dichroic mirror at 561 nm).

CCC[C@@H]1O[C@@H]2C[C@H]3[C@@H]4CCC5=Cc6c(cnn6-c6ccc(F)c(CN7CCC(CO)CC7)c6)C[C@]5(C)[C@H]4[C@@H](O)C[C@]3(C)[C@]2(C(=O)CO)O1 [Example 13, 1-[(4aR,4bS,5S,6aS,6bS, 8R,9aR,10aS,10bS)-1-(4-fluoro-3-{[4-(hydroxymethyl)piperidin-1-yl]methyl}phenyl)-5-hydroxy-4a,6a-dimethyl-8-propyl-4,4a,4b,5,6,6a,9a,10, 10a,10b,11,12-dodecahydro[1,3]dioxolo [3′,4′]cyclopenta [1′,2′:5,6]naphtho[1,2-f]indazol-6b(1H)-yl]-2-hydroxyethanone trifluoroacetic acid] and CCC[C@H]1O[C@@H]2C[C@H]3[C@@H]4CCC5=Cc6c(cnn6-c6ccc(F)c(CN7CCC(CO)CC7)c6)C[C@]5(C)[C@H]4[C@@H](O)C[C@]3(C)[C@]2(C(=O)CO)O1 [Example 14, 1-[(4aR,4bS,5S,6aS,6bS, 8S,9aR,10aS,10bS)-1-(4-fluoro-3-{[4-(hydroxymethyl)-piperidin-1-yl]methyl}phenyl)-5-hydroxy-4a,6a-dimethyl-8-propyl-4,4a,4b,5,6,6a,9a,10, 10a,10b,11,12-dodecahydro[1,3]dioxolo [3′,4′]cyclopenta [1′,2′:5,6]naphtho[1,2-f]indazol-6b(1H)-yl]-2-hydroxyethanone trifluoroacetic acid] are within 1.5-fold of each other in IC50: 32 nM for the first, 47 nM for the second.

Compared with CCC[C@@H]1O[C@@H]2C[C@H]3[C@@H]4CCC5=Cc6c(cnn6-c6ccc(F)c(CNCCO)c6)C[C@]5(C)[C@H]4[C@@H](O)C[C@]3(C)[C@]2(C(=O)CO)O1 [Example 15, 1-[(4aR,4bS,5S,6aS,6bS, 8R,9aR,10aS,10bS)-1-(4-fluoro-3-{[(2-hydroxyethyl)amino]-methyl}phenyl)-5-hydroxy-4a,6a-dimethyl-8-propyl-4,4a, 4b,5,6,6a,9a,10,- 10a,10b,11,12-dodecahydro [1,3]dioxolo-[3′,4′]cyclopenta[1′,2′:5,6]naphtho[1,2-f]indazol-6b(1H)-yl]-2-hydroxyethanone trifluoroacetic acid], CCC[C@@H]1O[C@@H]2C[C@H]3[C@@H]4CCC5=Cc6c(cnn6-c6ccc(F)c(CO)c6)C[C@]5(C)[C@H]4[C@@H](O)C[C@]3(C)[C@]2(C(=O)CO)O1 [Example 16, 1-[(4aR,4bS,5S,6aS,6bS,8R,9aR,10aS,10bS)-1-[4-Fluoro-3-(hydroxymethyl)phenyl]-5-hydroxy-4a,6a-dimethyl-8-propyl-4,4a,4b,5,6,6a,9a,10,10a,10b,11,12-dodecahydro[1,3]dioxolo[3′,4′]cyclopenta[1′,2′:5,6]naphtho[1,2-f]indazol-6b(1H)-yl]-2-hydroxyethanone] is 14-fold lower in IC50: 42 nM for the first, 3.1 nM for the second. The second is the more potent here.

CCC[C@H]1O[C@@H]2C[C@H]3[C@@H]4CCC5=Cc6c(cnn6-c6ccc(F)c(CO)c6)C[C@]5(C)[C@H]4[C@@H](O)C[C@]3(C)[C@]2(C(=O)CO)O1 [Example 17, 1-[(4aR,4bS,5S,6aS,6bS,8S,9aR,10aS,10bS)-1-[4-Fluoro-3-(hydroxymethyl)phenyl]-5-hydroxy-4a,6a-dimethyl-8-propyl-4,4a,4b,5,6,6a,9a,10,10a,10b,11,12-dodecahydro[1,3]dioxolo[3′,4′]cyclopenta[1′,2′:5,6]naphtho[1,2-f]indazol-6b(1H)-yl]-2-hydroxyethanone] and CCC[C@@H]1O[C@@H]2C[C@H]3[C@@H]4CCC5=Cc6c(cnn6-c6ccc(F)c(C(=O)OC)c6)C[C@]5(C)[C@H]4[C@@H](O)C[C@]3(C)[C@]2(C(=O)CO)O1 [Example 22, Methyl 2-fluoro-5-[(4aR,4bS,5S,6aS,6bS,8R,9aR,10aS,10bS)-6b-glycoloyl-5-hydroxy-4a,6a-dimethyl-8-propyl-4a,4b,5,6,6a,6b,9a,10,10a,10b,11,12-dodecahydro[1,3]dioxolo[3′,4′]cyclopenta[1′,2′:5,6]naphtho[1,2-f]indazol-1(4H)-yl]benzoate] are within 1.5-fold of each other in IC50: 6.6 nM for the first, 5.9 nM for the second.

CCC[C@@H]1O[C@@H]2C[C@H]3[C@@H]4CCC5=Cc6c(cnn6-c6ccc(F)cc6)C[C@]5(C)[C@H]4[C@@H](O)C[C@]3(C)[C@]2(C(=O)CO)O1 [Example 18, 1-[(4aR,4bS,5S,6aS,6bS,8R,9aR,10aS,10bS)-1-(4-Fluorophenyl)-5-hydroxy-4a,6a-dimethyl-8-propyl-4,4a,4b,5,6,6a,9a,10,10a,10b,11,12-dodecahydro[1,3]dioxolo[3′,4′]-cyclopenta[1′,2′:5,6]naphtho[1,2-f]indazol-6b(1H)-yl]-2-hydroxyethanone] and CCC[C@H]1O[C@@H]2C[C@H]3[C@@H]4CCC5=Cc6c(cnn6-c6ccc(F)cc6)C[C@]5(C)[C@H]4[C@@H](O)C[C@]3(C)[C@]2(C(=O)CO)O1 [Example 19, 1-[(4aR,4bS,5S,6aS,6bS,8S,9aR,10aS,10bS)-1-(4-Fluorophenyl)-5-hydroxy-4a,6a-dimethyl-8-propyl-4,4a,4b,5,6,6a,9a,10,10a,10b,11,12-dodecahydro[1,3]dioxolo-[3′,4′]cyclopenta[1′,2′:5,6]naphtho[1,2-f]indazol-6b(1H)-yl]-2-hydroxyethanone] are within 1.5-fold of each other in IC50: 2.3 nM for the first, 2.7 nM for the second.

First: CC1(C)O[C@@H]2C[C@H]3[C@@H]4CCC5=Cc6c(cnn6-c6ccc(F)cc6)C[C@]5(C)[C@H]4[C@@H](O)C[C@]3(C)[C@]2(C(=O)CO)O1 [Example 20, 1-[(4aR,4bS,5S,6aS,6bS,9aR,10aS,10bS)-1-(4-Fluorophenyl)-5-hydroxy-4a,6a,8,8-tetramethyl-4,4a,4b,5,6,6a,9a,10,10a,10b,11,12-dodecahydro[1,3]dioxolo-[3′,4′]cyclopenta[1′,2′:5,6]naphtho[1,2-f]indazol-6b(1H)-yl]-2-hydroxyethanone]
Second: CC1(C)O[C@@H]2C[C@H]3[C@@H]4CCC5=Cc6c(cnn6-c6ccc(F)c(CO)c6)C[C@]5(C)[C@H]4[C@@H](O)C[C@]3(C)[C@]2(C(=O)CO)O1 [Example 21, 1-[(4aR,4bS,5S,6aS,6bS,9aR,10aS,10bS)-1-[4-Fluoro-3-(hydroxymethyl)phenyl]-5-hydroxy-4a,6a,8,8-tetramethyl-4,4a,4b,5,6,6a,9a,10,10a,10b,11,12-dodecahydro[1,3]dioxolo[3′,4′]cyclopenta[1′,2′:5,6]naphtho[1,2-f]indazol-6b(1H)-yl]-2-hydroxyethanone]
The IC50 of the first is 4.2-fold lower: 1.3 nM for the first, 5.5 nM for the second.

Going from CCC[C@H]1O[C@@H]2C[C@H]3[C@@H]4CCC5=Cc6c(cnn6-c6ccc(F)c(C(=O)OC)c6)C[C@]5(C)[C@H]4[C@@H](O)C[C@]3(C)[C@]2(C(=O)CO)O1 [Example 23, Methyl 2-fluoro-5-[(4aR,4bS,5S,6aS,6bS,8S,9aR,10aS,10bS)-6b-glycoloyl-5-hydroxy-4a,6a-dimethyl-8-propyl-4a,4b,5,6,6a,6b,9a,10,10a,10b,11,12-dodecahydro[1,3]dioxolo[3′,4′]cyclopenta[1′,2′:5,6]naphtho[1,2-f]indazol-1(4H)-yl]benzoate] to CC1(C)O[C@@H]2C[C@H]3[C@@H]4C=CC5=Cc6c(cnn6-c6ccc(F)cc6)C[C@]5(C)[C@H]4[C@@H](O)C[C@]3(C)[C@]2(C(=O)CO)O1 [Example 24, 1-[(4aR,4bS,5S,6aS,6bS,9aR,10aS,10bS)-1-(4-Fluorophenyl)-5-hydroxy-4a,6a,8,8-tetramethyl-4,4a,4b,5,6,6a,9a,10,10a,10b-decahydro[1,3]dioxolo[3′,4′]cyclopenta-[1′,2′:5,6]naphtho[1,2-f]indazol-6b(1H)-yl]-2-hydroxyethanone], the IC50 falls from 5.9 nM to 3.8 nM (1.6-fold). The second is the more potent here.
